{"source": "ChEMBL document CHEMBL5550165", "about": "“Novel quinoxaline analogs as telomeric G-quadruplex ligands exert antitumor effects related to enhanced immunomodulation” (Eur J Med Chem, 2024)", "key": {"Quadruplex DNA [1]": {"system": "Quadruplex DNA", "assay": "Stabilization of G-quadruplex 5-FAM-telomeric24 DNA-TAMRA-3 (unknown origin) assessed as change in melting temperature incubated for 2 hrs by FRET assay", "type": "nucleic-acid assay"}, "[2]": {"assay": "Cytotoxicity against human MCF-10A cells incubated for 24 hrs by CCK-8 reagent based spectrophotometric analysis", "type": "toxicity, cell-based"}, "MDA-MB-231 [3]": {"system": "MDA-MB-231", "assay": "Cytotoxicity against human MDA-MB-231 cells incubated for 24 hrs by CCK-8 reagent based spectrophotometric analysis", "type": "functional, cell-based", "conditions": "MDA-MB-231, 24 h"}, "Quadruplex DNA [4]": {"system": "Quadruplex DNA", "assay": "Stabilization of G-quadruplex telomeric DNA in human MDA-MB-231 cells assessed as increase in BG4-positive cell nuclei at 3 uM incubated for 24 hrs by DAPI staining based immunofluorescence microscopic analysis"}, "MDA-MB-231 [5]": {"system": "MDA-MB-231", "assay": "Induction of DNA damage in human MDA-MB-231 cells assessed as increase in gamma-H2AX level in nucleus at 3 uM incubated for 24 hrs by DAPI staining based immunofluorescence analysis", "type": "functional, cell-based"}, "MDA-MB-231 [6]": {"system": "MDA-MB-231", "assay": "Induction of DNA damage in human MDA-MB-231 cells assessed as increase in colocalization of TRF2 and gamma-H2AX formation foci in nucleus at 3 uM incubated for 24 hrs by DAPI staining based immunofluorescence analysis", "type": "functional, cell-based"}, "MDA-MB-231 [7]": {"system": "MDA-MB-231", "assay": "Induction of DNA damage in human MDA-MB-231 cells assessed as increase in tail moment at 4 uM incubated for 24 hrs by electrophoresis assay", "type": "functional, cell-based"}, "MDA-MB-231 [8]": {"system": "MDA-MB-231", "assay": "Induction of DNA damage in human MDA-MB-231 cells assessed as upregulation of RPA32 expression at 1 to 4 uM incubated for 24 hrs by Western blot analysis", "type": "functional, cell-based", "conditions": "dose 1-4 µM"}, "MDA-MB-231 [9]": {"system": "MDA-MB-231", "assay": "Induction of DNA damage in human MDA-MB-231 cells assessed as upregulation of ATM phosphorylation incubated for 24 hrs by Western blot analysis", "type": "functional, cell-based"}, "MDA-MB-231 [10]": {"system": "MDA-MB-231", "assay": "Induction of DNA damage in human MDA-MB-231 cells assessed as upregulation of CHK2 phosphorylation incubated for 24 hrs by Western blot analysis", "type": "functional, cell-based"}, "MDA-MB-231 [11]": {"system": "MDA-MB-231", "assay": "Induction of cell cycle arrest in human MDA-MB-231 cells assessed as accumulation of cells at G0/G1 phase at 1 uM incubated for 24 hrs by RNase/PI staining based flow cytometry (reference value: 82.3 %)", "type": "functional"}, "MDA-MB-231 [12]": {"system": "MDA-MB-231", "assay": "Induction of cell cycle arrest in human MDA-MB-231 cells assessed as accumulation of cells at G0/G1 phase at 2 uM incubated for 24 hrs by RNase/PI staining based flow cytometry (reference value: 82.3 %)", "type": "functional"}, "MDA-MB-231 [13]": {"system": "MDA-MB-231", "assay": "Induction of cell cycle arrest in human MDA-MB-231 cells assessed as accumulation of cells at G0/G1 phase at 4 uM incubated for 24 hrs by RNase/PI staining based flow cytometry (reference value: 82.3 %)", "type": "functional"}, "MDA-MB-231 [14]": {"system": "MDA-MB-231", "assay": "Induction of cell cycle arrest in human MDA-MB-231 cells assessed as accumulation of cells at S phase at 2 uM incubated for 24 hrs by RNase/PI staining based flow cytometry (reference value: 6.3 %)", "type": "functional"}, "MDA-MB-231 [15]": {"system": "MDA-MB-231", "assay": "Induction of cell cycle arrest in human MDA-MB-231 cells assessed as accumulation of cells at S phase at 4 uM incubated for 24 hrs by RNase/PI staining based flow cytometry (reference value: 6.3 %)", "type": "functional"}, "MDA-MB-231 [16]": {"system": "MDA-MB-231", "assay": "Induction of apoptosis in human MDA-MB-231 cells assessed as upregulation of cleaved caspase-3 expression at 1 to 4 uM incubated for 24 hrs by Western blot analysis", "type": "functional, cell-based", "conditions": "dose 1-4 µM"}, "[17]": {"assay": "Drug uptake in human MDA-MB-231 cells assessed as increase in fluorescence intensity in tumor spheroid incubated for 24 hrs", "type": "ADME, cell-based", "conditions": "mda-mb-231, 24 h"}, "MDA-MB-231 [18]": {"system": "MDA-MB-231", "assay": "Antiproliferative activity against human MDA-MB-231 cells assessed as reduction in tumor spheroid volume at 20 to 40 uM incubated for 7 days by propidium iodide staining based fluorescence analysis", "type": "functional, cell-based", "conditions": "dose 20-40 µM, time 7.0 day"}, "MDA-MB-231 [19]": {"system": "MDA-MB-231", "assay": "Induction of immunogenic cell death in human MDA-MB-231 cells assessed as increase in CRT expression incubated for 24 hrs by immunofluorescence confocal laser scanning microscopic analysis", "type": "functional, cell-based"}, "BMDC": {"system": "BMDC", "assay": "Induction of immunogenic cell death in BALB/c mouse BMDC cells co-cultured with mouse 4T1 cells assessed as increase in CD11c+ CD80+ CD86 cells maturation at 5 uM incubated for 24 hrs by flow cytometry (reference value: 69.4 %)", "type": "functional"}, "4T1 [20]": {"system": "4T1", "assay": "Antitumor activity against mouse 4T1 cells implanted in BALB/c mouse assessed as increase in survival time at 10 mg/kg,ip every other day for 14 days", "type": "functional, organism-based", "conditions": "time 14.0 day"}, "[21]": {"assay": "Toxicity in BALB/c mouse implanted with mouse 4T1 cells assessed as histopathological change in liver at 10 mg/kg,ip every other day for 14 days by hematoxylin and eosin staining analysis", "type": "organism-based", "conditions": "in vivo, 336 h, time 14 day"}, "[22]": {"assay": "Toxicity in BALB/c mouse implanted with mouse 4T1 cells assessed as histopathological change in lung at 10 mg/kg,ip every other day for 14 days by hematoxylin and eosin staining analysis", "type": "organism-based", "conditions": "in vivo, 336 h, time 14 day"}, "4T1 [23]": {"system": "4T1", "assay": "Antitumor activity against mouse 4T1 cells implanted in BALB/c mouse assessed as damage in tumor tissue at 10 mg/kg,ip every other day for 14 days by hematoxylin and eosin staining analysis", "type": "functional, organism-based", "conditions": "time 14.0 day"}, "4T1 [24]": {"system": "4T1", "assay": "Antitumor activity against mouse 4T1 cells implanted in BALB/c mouse assessed as upregulation of cleaved PARP expression in tumor at 10 mg/kg,ip every other day for 14 days by Western blot analysis", "type": "functional, organism-based", "conditions": "time 14.0 day"}, "4T1 [25]": {"system": "4T1", "assay": "Antitumor activity against mouse 4T1 cells implanted in BALB/c mouse assessed as upregulation of cleaved caspase-3 expression in tumor at 10 mg/kg,ip every other day for 14 days by Western blot analysis", "type": "functional, organism-based", "conditions": "time 14.0 day"}, "4T1 [26]": {"system": "4T1", "assay": "Antitumor immunity against mouse 4T1 cells implanted in BALB/c mouse assessed as increase in proportion of CD4+ T cells in spleen at 10 mg/kg,ip every other day for 14 days by flow cytometry", "type": "functional, organism-based", "conditions": "time 14.0 day"}, "4T1 [27]": {"system": "4T1", "assay": "Antitumor immunity against mouse 4T1 cells implanted in BALB/c mouse assessed as increase in proportion of CD8+ T cells in spleen at 10 mg/kg,ip every other day for 14 days by flow cytometry", "type": "functional, organism-based", "conditions": "time 14.0 day"}, "4T1 [28]": {"system": "4T1", "assay": "Antitumor immunity against mouse 4T1 cells implanted in BALB/c mouse assessed as increase in proportion of CD4+ T cells in tumor at 10 mg/kg,ip every other day for 14 days by flow cytometry", "type": "functional, organism-based", "conditions": "time 14.0 day"}, "4T1 [29]": {"system": "4T1", "assay": "Antitumor immunity against mouse 4T1 cells implanted in BALB/c mouse assessed as increase in proportion of CD8+ T cells in tumor at 10 mg/kg,ip every other day for 14 days by flow cytometry", "type": "functional, organism-based", "conditions": "time 14.0 day"}, "4T1 [30]": {"system": "4T1", "assay": "Antitumor immunity against mouse 4T1 cells implanted in BALB/c mouse assessed as increase in proportion of CD4+ T cells in tumor at 10 mg/kg,ip every other day for 14 days by immunohistochemistry staining based analysis", "type": "functional, organism-based", "conditions": "time 14.0 day"}, "4T1 [31]": {"system": "4T1", "assay": "Antitumor immunity against mouse 4T1 cells implanted in BALB/c mouse assessed as increase in serum IL-6 level at 10 mg/kg,ip every other day for 14 days by ELISA", "type": "functional, organism-based", "conditions": "time 14.0 day"}, "MDA-MB-231 [32]": {"system": "MDA-MB-231", "assay": "Induction of DNA damage in human MDA-MB-231 cells assessed as increase in micronuclei frequency in aberrant cell at 4 uM incubated for 24 hrs by DAPI staining based microscopic analysis", "type": "functional"}}, "note": "pIC50: −log10 of the molar value. The source made the active and inactive calls. The calls are words filed in the database; no cut-off is given here."}
{"smiles": "CN(C)CCN(C)c1ccc(-c2nc3ccc(C(F)(F)F)cc3nc2-c2ccc(N(C)CCN(C)C)cc2)cc1", "values": [{"measurement": "ΔTm", "setting": "Quadruplex DNA [1]", "result": 6.1, "unit": "°C"}, {"measurement": "IC50 at 24 h", "setting": "[2]", "result": 5.8, "unit": "µM"}, {"measurement": "pIC50", "setting": "MDA-MB-231 [3]", "result": 5.77}, {"measurement": "Activity", "setting": "Quadruplex DNA [4]", "result": "Active"}, {"measurement": "Activity", "setting": "MDA-MB-231 [5]", "result": "Active"}, {"measurement": "Activity", "setting": "MDA-MB-231 [6]", "result": "Active"}, {"measurement": "Activity", "setting": "MDA-MB-231 [7]", "result": "Active"}, {"measurement": "Activity", "setting": "MDA-MB-231 [8]", "result": "Active"}, {"measurement": "Activity", "setting": "MDA-MB-231 [9]", "result": "Dose-Dependent Effect"}, {"measurement": "Activity", "setting": "MDA-MB-231 [10]", "result": "Dose-Dependent Effect"}, {"measurement": "Activity", "setting": "MDA-MB-231 [11]", "result": 82.1, "unit": "%"}, {"measurement": "Activity", "setting": "MDA-MB-231 [12]", "result": 81.6, "unit": "%"}, {"measurement": "Activity", "setting": "MDA-MB-231 [13]", "result": 70.3, "unit": "%"}, {"measurement": "Activity", "setting": "MDA-MB-231 [14]", "result": 6.9, "unit": "%"}, {"measurement": "Activity", "setting": "MDA-MB-231 [15]", "result": 8.6, "unit": "%"}, {"measurement": "Activity", "setting": "MDA-MB-231 [16]", "result": "Active"}, {"measurement": "Drug uptake", "setting": "[17]", "result": "Active"}, {"measurement": "Activity", "setting": "MDA-MB-231 [18]", "result": "Active"}, {"measurement": "Activity", "setting": "MDA-MB-231 [19]", "result": "Dose-Dependent Effect"}, {"measurement": "Activity", "setting": "BMDC", "result": 77.9, "unit": "%"}, {"measurement": "Activity", "setting": "4T1 [20]", "result": "Active"}, {"measurement": "Activity", "setting": "[21]", "result": "Non-Toxic"}, {"measurement": "Activity", "setting": "[22]", "result": "Non-Toxic"}, {"measurement": "Activity", "setting": "4T1 [23]", "result": "Active"}, {"measurement": "Activity", "setting": "4T1 [24]", "result": "Active"}, {"measurement": "Activity", "setting": "4T1 [25]", "result": "Active"}, {"measurement": "Activity", "setting": "4T1 [26]", "result": "Active"}, {"measurement": "Activity", "setting": "4T1 [27]", "result": "Active"}, {"measurement": "Activity", "setting": "4T1 [28]", "result": "Active"}, {"measurement": "Activity", "setting": "4T1 [29]", "result": "Active"}, {"measurement": "Activity", "setting": "4T1 [30]", "result": "Active"}, {"measurement": "Activity", "setting": "4T1 [31]", "result": "Active"}, {"measurement": "Activity", "setting": "MDA-MB-231 [32]", "result": "Active"}]}
